Source: US11891634B2, “PDE5A destabilizing domains” (The Board of Trustees of the Leland Stanford Junior …, priority 2017, dated 2024)

Experiments:
Format in all cases: cell-based, human
[1] = test system: HCT 116 cells transduced with the PDE5A DD derived GFP constructs; assay: Response to Vardenafil, GFP expression by FACS in HCT116; conditions: for MFI / Stabilization ratio with Vardenafil: 48 hours, HCT116
Protocol: (§1) Mutations were created in PDE5A (535-860) catalytic domain using site directed mutagenesis and the mutants were cloned as AcGFP fusion into pELNS vector carrying mCherry marker and packaged in lentiviral vectors. HCT116 cells were transduced with the constructs and stable integrants were selected by cell sorting using mCherry marker. Cells were treated with vehicle (dimethyl sulfoxide, DMSO) or 10 μM Vardenafil (VDF) for 48 hours. Following the treatment, cells were analyzed for GFP expression using FACS. Basal expression was calculated as the ratio of GFP signal in the absence of ligand for a given cell line to auto fluorescence of parental HCT-116 cells. Stabilization ratio was calculated as the ratio of the GFP signal observed in the presence of stabilizing ligand to the signal from the same cell line in the absence of ligand.
HCT 116 cells transduced with the PDE5A DD derived GFP constructs were also tested with increasing doses of Vardenafil. The HCT116 cells were incubated for 48 hours with Vardenafil starting at a dose of 0.002 μM to 30 μM. The GFP intensity of the Vardenafil treated samples was compared to the parental untransduced HCT116 and DMSO treated cells for each construct. The mean fluorescence intensity was calculated for each sample and used to calculate the stabilization ratios as well as the basal expression for each construct. The GFP expression was measured using flow cytometry and the mean fluorescence intensity (MFI) was calculated for each sample. The stabilization ratios are shown in Table 13 and Table 14 and the basal expression is show in Table 15.

[2] = test system: HCT116 cells transduced with the constructs; assay: Response to Sildenafil, GFP expression by flow cytometry in HCT116; conditions: for MFI / Stabilization ratio with Sildenafil: 48 hours, HCT116
Protocol: Similar experiments were performed in HCT116 cells using sildenafil. The above-mentioned DDs were cloned as AcGFP fusion into pELNS vector carrying mCherry marker and packaged in lentiviral vectors. HCT116 cells were transduced with the constructs and stable integrants were selected by cell sorting using mCherry marker. Cells were treated with sildenafil at the following μM concentrations: 0.01, 0.02, 0.05, 0.14, 0.41, 1.23, 3.7, 11.11, 33.33, and 100 for a duration of 48 hours. The fluorescence was analyzed by flow cytometry and the mean fluorescence intensity was calculated for all samples. […] The stabilization ratios are shown in Table 24 and Table 25 and the basal expression is show in Table 26.

[3] = test system: HCT 116 cells transduced with the PDE5A DD derived GFP constructs; assay: Response to Tadalafil, GFP expression by FACS in HCT116; conditions: for MFI / Stabilization ratio with Tadalafil: 48 hours, HCT116
Protocol: as §1, with “PDE5AN (#3) was” for “Mutations were created in PDE5A (535-860) catalytic domain using site directed mutagenesis and the mutants were”, “construct” for “constructs”, “varying doses of Tadalafil (TDF)” for “10 μM Vardenafil (VDF)”, “hrs with doses ranging from 0.01 μM to 100 μM.” for “hours.”
HCT 116 cells transduced with the PDE5A DD derived GFP constructs were also tested with increasing doses of Tadalafil. The HCT116 cells were incubated for 48 hours with Tadalafil starting at dose 0.01 μM to 100 μM. The GFP intensity of the Tadalafil treated samples was compared to the parental untransduced HCT116 and DMSO treated cells for each construct. The mean fluorescence intensity was calculated for each sample and used to calculate the stabilization ratios as well as the basal expression for each construct. The stabilization ratios are shown in Table 19 and Table 20 and the basal expression is show in Table 21.

Question: What does the source list for “PDE5AC (#28): AcGFP fused to C-terminal DD 535-860 of PDE5A (Q589R, K591E, N609H, D764V), SEQ ID NO. 25”?
Answer: MFI ([1]; DMSO (no Vardenafil)): 13817; Basal (DMSO/Parental) ([1]; Table 10, GFP signal without ligand / auto fluorescence of parental HCT-116): 10.4; Basal ([1]; Table 15, MFI with DMSO / parental HCT116, Vardenafil experiment): 7.07; Stabilization ratio with Vardenafil ([1]; Vardenafil 0.002 μM vs DMSO): 1.1; MFI ([1]; Vardenafil 0.002 μM): 15437; MFI ([1]; Vardenafil 0.005 μM): 19446; Stabilization ratio with Vardenafil ([1]; Vardenafil 0.014 μM vs DMSO): 2.1; MFI ([1]; Vardenafil 0.014 μM): 29314; Stabilization ratio with Vardenafil ([1]; Vardenafil 0.041 μM vs DMSO): 3.3; MFI ([1]; Vardenafil 0.041 μM): 45804; Stabilization ratio with Vardenafil ([1]; Vardenafil 0.123 μM vs DMSO): 5.4; MFI ([1]; Vardenafil 0.123 μM): 74153; Stabilization ratio with Vardenafil ([1]; Vardenafil 0.370 μM vs DMSO): 5.9; MFI ([1]; Vardenafil 0.370 μM): 81663; Stabilization ratio with Vardenafil ([1]; Vardenafil 1.111 μM vs DMSO): 6.5; MFI ([1]; Vardenafil 1.111 μM): 89426; Stabilization ratio with Vardenafil ([1]; Vardenafil 3.333 μM vs DMSO): 6.7; MFI ([1]; Vardenafil 3.333 μM): 92290; Stabilization ratio with Vardenafil ([1]; Vardenafil 10 μM vs DMSO): 6.3; MFI ([1]; Vardenafil 10 μM): 86985; Stabilization ratio with Vardenafil ([1]; Vardenafil 30 μM vs DMSO): 6.7; MFI ([1]; Vardenafil 30 μM): 93145; MFI ([2]; DMSO (no Sildenafil)): 13208; Stabilization ratio with Sildenafil ([2]; Sildenafil 0.01 μM vs DMSO): 1.1; MFI ([2]; Sildenafil 0.01 μM): 14613; Stabilization ratio with Sildenafil ([2]; Sildenafil 0.02 μM vs DMSO): 1.2; MFI ([2]; Sildenafil 0.02 μM): 16502; Stabilization ratio with Sildenafil ([2]; Sildenafil 0.05 μM vs DMSO): 1.3; MFI ([2]; Sildenafil 0.05 μM): 17801; Stabilization ratio with Sildenafil ([2]; Sildenafil 0.14 μM vs DMSO): 2.0; MFI ([2]; Sildenafil 0.14 μM): 26694; Stabilization ratio with Sildenafil ([2]; Sildenafil 0.41 μM vs DMSO): 3.3; MFI ([2]; Sildenafil 0.41 μM): 43862; Stabilization ratio with Sildenafil ([2]; Sildenafil 1.23 μM vs DMSO): 5.0; MFI ([2]; Sildenafil 1.23 μM): 65762; Stabilization ratio with Sildenafil ([2]; Sildenafil 3.70 μM vs DMSO): 6.3; MFI ([2]; Sildenafil 3.70 μM): 83657; Stabilization ratio with Sildenafil ([2]; Sildenafil 11.11 μM vs DMSO): 6.1; MFI ([2]; Sildenafil 11.11 μM): 80269; Stabilization ratio with Sildenafil ([2]; Sildenafil 33.33 μM vs DMSO): 6.3; MFI ([2]; Sildenafil 33.33 μM): 83663; Stabilization ratio with Sildenafil ([2]; Sildenafil 100.00 μM vs DMSO): 6.1; Basal expression ([2]; Table 26, MFI with DMSO / parental HCT116, Sildenafil experiment): 10.3; MFI ([3]; DMSO (no Tadalafil)): 15004; Basal expression ([3]; Table 21, MFI with DMSO / parental HCT116, Tadalafil experiment): 11.72; Stabilization ratio with Tadalafil ([3]; Tadalafil 0.01 μM vs DMSO): 0.9; MFI ([3]; Tadalafil 0.01 μM): 14073; Stabilization ratio with Tadalafil ([3]; Tadalafil 0.02 μM vs DMSO): 1.0; MFI ([3]; Tadalafil 0.02 μM): 14513; Stabilization ratio with Tadalafil ([3]; Tadalafil 0.05 μM vs DMSO): 1.0; MFI ([3]; Tadalafil 0.05 μM): 15730; Stabilization ratio with Tadalafil ([3]; Tadalafil 0.14 μM vs DMSO): 1.2; MFI ([3]; Tadalafil 0.14 μM): 18316; Stabilization ratio with Tadalafil ([3]; Tadalafil 0.41 μM vs DMSO): 1.9; MFI ([3]; Tadalafil 0.41 μM): 28462; Stabilization ratio with Tadalafil ([3]; Tadalafil 1.23 μM vs DMSO): 3.0; MFI ([3]; Tadalafil 1.23 μM): 44739; Stabilization ratio with Tadalafil ([3]; Tadalafil 3.7 μM vs DMSO): 4.6; MFI ([3]; Tadalafil 3.7 μM): 69430; Stabilization ratio with Tadalafil ([3]; Tadalafil 11.11 μM vs DMSO): 5.7; MFI ([3]; Tadalafil 11.11 μM): 85998; Stabilization ratio with Tadalafil ([3]; Tadalafil 33.33 μM vs DMSO): 6.3; MFI ([3]; Tadalafil 33.33 μM): 95189; Stabilization ratio with Tadalafil ([3]; Tadalafil 100 μM vs DMSO): 6.5; MFI ([3]; Tadalafil 100 μM): 97016
